The numbers were not newly measured in patent US20220016058A1, “PHARMACEUTICAL COMPOSITION CONTAINING TAMSULOSIN HYDROCHLORIDE WITH EXCELLENT ACID RESISTANCE AND PREPARATION METHOD THEREFOR” (HANMI PHARM. CO., LTD., priority 2018, published 2022), which cites them from elsewhere.

Counter-ions that a name gives are not always drawn.

Regarding `CCOc1ccccc1OCCN[C@H](C)Cc1ccc(OC)c(S(N)(=O)=O)c1` [tamsulosin hydrochloride, Tamsulosin hydrochloride], the Solubility in water entry is reported as “dissolving a little in water”.
